The values below come from article PMC6409032, “Antileishmanial Evaluation of the Leaf Latex of Aloe macrocarpa, Aloin A/B, and Its Semisynthetic Derivatives against Two Leishmania Species” (Evidence-based Complementary and Alternative Medicine : eCAM, 2019).

Read-outs that look alike come from different tables or passages of the source.

Data set [1] is described as follows: Cytotoxicity study in THP-1 monocytes (Alamar Blue). The format is cell-based. The conditions noted are these: human. As for the experimental part: In vitro antileishmanial activity tests were carried out against the promastigote stage and axenically cultured amastigotes of L. aethiopica and L. donovani. […] Axenically cultured amastigotes were obtained from the late stationary phase promastigotes (3 × 10^6 cells/ml). […] The pH was adjusted to 5.5 using 1 N HCl. Following incubation of cells at 31°C for L. aethiopica and 37°C for L. donovani at 5% CO2, amastigote-like rounded morphology together with loss of flagella and cell clumping started appearing within 24 h. The parasites were kept for a week as some motile parasites with intermediate forms and short flagella were detected. […] A cell-free medium was used to grow parasites in vitro and to set up the test system for determination of the IC50 values of the test substances.
THP-1 monocytes were plated onto 96-well plates at a density of 4 × 10^4 cells per well (in 200 μL volume) in the presence or absence of test substances and plates incubated at 37°C, 5% CO2 for 72 h. After adding Alamar Blue™ during the last 3 h of incubation, cell viability was measured fluorometrically as described above.
(The colour change of resazurin is a common sign of viable cells or microbes.)

Data set [2] relates to Leishmania donovani promastigotes. As to the kind of experiment: In vitro antipromastigote assay (resazurin fluorescence). The format is cell-based. As to conditions: L. donovani promastigotes, 72 h. The method, then:
(§1) In vitro antileishmanial activity tests were carried out against the promastigote stage and axenically cultured amastigotes of L. aethiopica and L. donovani. The two isolates were grown in tissue culture flasks containing RPMI 1640 medium supplemented with 10% heat-inactivated fetal calf serum, 100 IU penicillin/mL, and 100 μg/mL streptomycin solution at 22°C for L. aethiopica and 24°C for L. donovani. Axenically cultured amastigotes were obtained from the late stationary phase promastigotes (3 × 10^6 cells/ml). The cells were centrifuged and then resuspended in medium 199 with Hank's salts supplemented with 20% FBS, 2 mM L-glutamine, 50 IU/mL penicillin, and 50 μg/mL streptomycin. The pH was adjusted to 5.5 using 1 N HCl. Following incubation of cells at 31°C for L. aethiopica and 37°C for L. donovani at 5% CO2, amastigote-like rounded morphology together with loss of flagella and cell clumping started appearing within 24 h. The parasites were kept for a week as some motile parasites with intermediate forms and short flagella were detected. The human monocytic leukemia cell line THP-1 cells were incubated in RPMI 1640 medium plus 10% hi-FCS and 20 ng/mL phorbol 12-myristate 13-acetate (PMA; Sigma) at 37°C and 5% CO2 for 72 h. A cell-free medium was used to grow parasites in vitro and to set up the test system for determination of the IC50 values of the test substances.
(§2) To a separate 96-well microtiter plate containing 100 μL of complete culture medium, each of the test substances was added to triplicate wells to achieve a final concentration of 100 μg/mL. Each one hundred microliter suspension of the parasites (3.5 × 10^6 promastigotes or axenically cultured amastigotes /mL of L. aethiopica or L. donovani) obtained from the previous culture was then added to each well, and contents of each plates were maintained for 72 h, at room temperature for promastigotes stages of both strains, at 31°C and 37°C for axenically cultured amastigotes of L. aethiopica and L. donovani, respectively. After 68 h of incubation, 20 μL (10% of the total volume of each well) resazurin (0.125 mg/mL) was added, covered with aluminum foil, and left at temperature mentioned above. Antileishmanial effect of the test substances was studied on the basis of fluorescence characteristic of resazurin added to drug-treated cultures.
(§3) Antipromastigote effect was evaluated against clinical isolates of L. aethiopica and L. donovani strains, as per the method described by Abeje et al..
(§4) Antileishmanial activity (IC50) was expressed as mean ± SD of triplicate measurements. IC50 values were evaluated from sigmoidal dose-response curves of percent inhibition using the computer software GraphPad Prism 8 (GraphPad Software, Inc., CA, USA), and values expressed as mean ± SD of triplicate experiments.

For data set [3], the system named is Leishmania aethiopica promastigotes. Described as above. The format is cell-based. The method, then:
as §1, §2, §3, §4

The subject of the next data set is L. major amastigotes. Set-up: method as in PMID 26151018. The conditions noted are these: in vitro; cited from earlier work.
Data set [4] can be described thus: Acute toxicity study (OECD limit test). As to conditions: mouse, in vivo; Swiss albino mice, limit test dose 2000 mg/kg, OECD guideline. As for the experimental part: Acute toxicity study was carried out as described earlier using the limit test dose of 2000 mg/kg according to OECD guideline for testing of chemicals on Swiss albino mice.
The subject of data set [5] is axenically cultured amastigotes of Leishmania donovani. Briefly: In vitro assay on axenically cultured amastigotes (resazurin fluorescence). The format is cell-based. The conditions noted are these: for Selectivity index: LC50 on THP-1 cells / IC50 on L. donovani amastigotes; for IC50: Leishmania donovani, L. donovani axenic amastigotes, 72 h. As for the experimental part:
as §1, with “The human monocytic leukemia cell line THP-1 cells were incubated in RPMI 1640 medium plus 10% hi-FCS and 20 ng/mL phorbol 12-myristate 13-acetate (PMA; Sigma) at 37°C and 5% CO2 for 72 h.” left out, “substances. […] Each one hundred microliter suspension of the parasites (3.5 × 10^6 promastigotes or axenically cultured amastigotes /mL of L. aethiopica or L. donovani) obtained from the previous culture was then added to each well, and contents of each plates were maintained for 72 h, at room temperature for promastigotes stages of both strains, at 31°C and 37°C for axenically cultured amastigotes of L. aethiopica and L. donovani, respectively. After 68 h of incubation, 20 μL (10% of the total volume of each well) resazurin (0.125 mg/mL) was added, covered with aluminum foil, and left at temperature mentioned above. […] Antileishmanial activity (IC50) was expressed as mean ± SD of triplicate measurements. IC50 values were evaluated from sigmoidal dose-response curves of percent inhibition using the computer software GraphPad Prism 8 (GraphPad Software, Inc., CA, USA), and values expressed as mean ± SD of triplicate experiments.” for “substances.”

Data set [6] deals with axenically cultured amastigotes of Leishmania aethiopica. Described as above. The format is cell-based. As to conditions: for Selectivity index: LC50 on THP-1 cells / IC50 on L. aethiopica amastigotes; for IC50: Leishmania aethiopica, L. aethiopica axenic amastigotes, 72 h. The method, then: as §1, with “The human monocytic leukemia cell line THP-1 cells were incubated in RPMI 1640 medium plus 10% hi-FCS and 20 ng/mL phorbol 12-myristate 13-acetate (PMA; Sigma) at 37°C and 5% CO2 for 72 h.” left out, “substances. […] Each one hundred microliter suspension of the parasites (3.5 × 10^6 promastigotes or axenically cultured amastigotes /mL of L. aethiopica or L. donovani) obtained from the previous culture was then added to each well, and contents of each plates were maintained for 72 h, at room temperature for promastigotes stages of both strains, at 31°C and 37°C for axenically cultured amastigotes of L. aethiopica and L. donovani, respectively. After 68 h of incubation, 20 μL (10% of the total volume of each well) resazurin (0.125 mg/mL) was added, covered with aluminum foil, and left at temperature mentioned above. […] Antileishmanial activity (IC50) was expressed as mean ± SD of triplicate measurements. IC50 values were evaluated from sigmoidal dose-response curves of percent inhibition using the computer software GraphPad Prism 8 (GraphPad Software, Inc., CA, USA), and values expressed as mean ± SD of triplicate experiments.” for “substances.”

The mark [7] stands for this setting: mean ± SD, n = 3, read-out: Cytotoxic effect in THP-1 LC50.
The mark [8] stands for this setting: read-out: Cytotoxic effect in THP-1 LC50 (micromolar, in parenthesis) (converted).
The mark [9] stands for this setting: mean ± SD, n = 3, read-out: Antipromastigote activity IC50.
[10] abbreviates: read-out: Antipromastigote activity IC50 (micromolar, in parenthesis) (converted).
The mark [11] stands for this setting: L. aethiopica promastigotes, 72 h, mean ± SD, n = 3, read-out: Antipromastigote activity IC50.
Where [12] appears, read: L. aethiopica promastigotes, 72 h, read-out: Antipromastigote activity IC50 (micromolar, in parenthesis) (converted).
The mark [13] stands for this setting: 37°C, mean ± SD, n = 3, read-out: Antiaxenically cultured amastigotes activity IC50.
Setting [14] is: read-out: Antiaxenically cultured amastigotes activity IC50 (micromolar, in parenthesis) (converted).
The mark [15] stands for this setting: 31°C, mean ± SD, n = 3, read-out: Antiaxenically cultured amastigotes activity IC50.

`O=C1c2cccc(O)c2C(=O)c2c(O)cc(CO)cc21` [Aloe-emodin, aloe-emodin]: the CC50 at 72 h in data set [1] (setting [7]) is 145.4 ± 0.27 µg/mL; in data set [1] (setting [8]) it was 539 µM. The concentration for half-maximal inhibition (IC50) in data set [2] (setting [9]) is 2.85 ± 0.5 µg/mL; in data set [2] (setting [10]), 10.6 µM; in data set [3] (setting [11]) it was 2.81 ± 0.43 µg/mL; in data set [3] (setting [12]) it was 10.4 µM; in data set [5] (setting [13]), 2.75 ± 0.03 µg/mL; in data set [5] (setting [14]), 10.2 µM. The IC50 in data set [6] (setting [15]) is 2.23 ± 0.33 µg/mL; in data set [6] (setting [14]), 8.3 µM. Moreover, the “inhibitory concentrations against L. major amastigotes” value with L. major amastigotes was 40 µg/mL. In addition, the LD50 in data set [4] was above 2000 mg/kg. Besides, the Selectivity index in data set [5] was 52.89; in data set [6], 65.22.

Consider `O=C1c2c(O)cccc2C(C2OC(CO)C(O)C(O)C2O)c2cc(CO)cc(O)c21` (centres unmarked) [Aloin A/B, aloin A/B], for which the CC50 at 72 h in data set [1] (setting [7]) was 154.3 ± 0.22 µg/mL; in data set [1] (setting [8]) it was 369 µM. Also, the IC50 in data set [2] (setting [9]) is 5.06 ± 0.22 µg/mL; in data set [2] (setting [10]), 12.1 µM; in data set [3] (setting [11]), 3.94 ± 0.33 µg/mL; in data set [3] (setting [12]) it was 9.4 µM; in data set [5] (setting [13]), 2.92 ± 0.15 µg/mL; in data set [5] (setting [14]), 7 µM. In addition, the figures for the IC50 in data set [6] (setting [15]) and in data set [6] (setting [14]) were 2.8 ± 1.02 µg/mL and 6.7 µM, respectively. The molecule further had an LD50 in data set [4] above 2000 mg/kg. Also, the Selectivity index in data set [5] came out at 52.84; in data set [6], 55.11.

Turning to `C[C@@H]1[C@H](O)[C@@H](C)/C=C/C=C/C=C/C=C/C=C/C=C/C=C/[C@H](O[C@@H]2O[C@H](C)[C@@H](O)[C@H](N)[C@@H]2O)C[C@@H]2O[C@](O)(C[C@@H](O)C[C@@H](O)[C@H](O)CC[C@@H](O)C[C@@H](O)CC(=O)O[C@H]1C)C[C@H](O)[C@H]2C(=O)O` [Amphotericin B, amphotericin B, reference compound], the CC50 at 72 h in data set [1] (setting [7]) is 10.2 ± 0.32 µg/mL; in data set [1] (setting [8]) it was 11.1 µM. Further, the IC50 is 2.45 ± 0.21 µg/mL in data set [2] (setting [9]); 2.7 µM in data set [2] (setting [10]); 2.43 ± 0.22 µg/mL in data set [3] (setting [11]); 2.6 µM in data set [3] (setting [12]); 1.3 to 2.7 µM in data set [3] (promastigotes and axenic amastigotes of L. aethiopica and L. donovani, read-out: IC50 (range over both stages and both species)); 1.55 ± 0.51 µg/mL in data set [5] (setting [13]). For the same molecule, the IC50 in data set [5] (setting [14]) is 1.7 µM; in data set [6] (setting [15]), 1.23 ± 0.41 µg/mL; in data set [6] (setting [14]), 1.3 µM. For the same molecule, the Selectivity index in data set [5] turned out to be 6.60; in data set [6], 8.31.

As for `O=C(O)c1cc(O)c2c(c1)C(=O)c1cccc(O)c1C2=O` [Rhein, rhein], the figures for the CC50 at 72 h in data set [1] (setting [7]) and in data set [1] (setting [8]) were 173.7 ± 0.11 µg/mL and 612 µM, respectively. The half-maximal inhibitory concentration (IC50) in data set [2] (setting [9]) is 2.07 ± 0.11 µg/mL; in data set [2] (setting [10]), 7.3 µM; in data set [3] (setting [11]) it was 1.91 ± 0.61 µg/mL; in data set [3] (setting [12]), 6.7 µM; in data set [5] (setting [13]), 1.17 ± 0.42 µg/mL; in data set [5] (setting [14]), 4.1 µM. Moreover, the half-inhibitory concentration (IC50) in data set [6] (setting [15]) was 1.01 ± 0.22 µg/mL; in data set [6] (setting [14]) it was 3.6 µM. This molecule gave an LD50 in data set [4] above 2000 mg/kg. In addition, the Selectivity index in data set [5] worked out at 148.46; in data set [6], 171.98.

Usually IC50 stands for the concentration that inhibits the measured activity by half. The term LD50 denotes the dose expected to kill half of the subjects tested.
